Data reported in US7612080B2, “GTPase inhibitors and use thereof for controlling platelet hyperactivity” (Cincinnati Children's Hospital Medical Center, priority 2004, dated 2009).

How the values were obtained:
NIH 3T3 cells = experiment: Cell growth assay of wild type, L61Rac1- or GEF-expressing NIH 3T3 cells; format: cell-based; details: 100 μM compound
Excerpt: The cells were split in triplicate in 6-well plates at a density of 5×10^4 cells per well. […] The foci numbers of the respective cells were quantified 14 days after transfection. […] The number and the morphology of the colonies were examined under a microscope.
Due to their ability to directly activate Rho GTPases, Db1 family GEFs are potent stimulators of cell proliferation.

Swiss3T3 cells = experiment: Immunofluorescence of PDGF-stimulated lamellipodia formation; details: 100 μM compound, 10 nM PDGF
Procedure: Immunofluorescence. […] The cellular actin is stained with TRITC-labeled phalloidin (Sigma) at 10 μg/ml in PBS for 40 min at room temperature. The actin and cell morphological changes are visualized by fluorescence microscopy.
The cells were fixed and stained with Rhodamine-labeled phalloidin.

[1] = biological target: T1, RhoA binding to PDZ-RhoGEF (Homo sapiens, UniProt P61586); experiment: Complex formation assay, RhoA with PDZ-RhoGEF
T1 construct: made in house; host or cells: Cos-7 cells (PDZ-RhoGEF, used as lysate)
Procedure: Trio and Tiam-1 co-precipitate with GST-Rac1, but not GST or GST-Cdc42.
After an incubation at 4° C. for 30 minutes, the beads associated (His)6-TrioN were detected by anti-His Western blotting. The blots were quantified by densitometry analysis. The results are representative of three measurements. […] The association of Rac1 with Tiam1 was examined by anti-His blot after anti-myc immunoprecipitation. […] The RhoA associated PDZ-RhoGEF was probed with anti-AU antibody after affinity precipitation by glutathione agarose beads.

[2] = biological target: PDZ-RhoGEF-stimulated mantGDP/GTP exchange of RhoA (Homo sapiens, UniProt P61586); experiment: In vitro guanine nucleotide exchange assay (mant-GDP), RhoA/PDZ-RhoGEF; format: biochemical; details: 200 μM compound
endogenous RhoA = biological target: T2, endogenous RhoA (Mus musculus, UniProt Q9QUI0); experiment: Endogenous Rho GTPase activity assay (GST-Rhotekin pull-down), RhoA in NIH 3T3 cells; format: cell-based; details: 10% serum
T2 construct: endogenous in cells; host or cells: NIH 3T3 fibroblasts

PC-3 cells [3] = experiment: Matrigel cell invasion assay; details: 25 μM compound, 24 hrs
Procedure: Cell invasion assays. The cell invasion assays are performed using 6.4-mm Biocoat Matrigel invasion chambers with 8.0-micron pore size PET membrane (Becton-Dickinson) according to the manufactory instructions. Briefly, 5×10^4 cells are resuspended in 0.5 ml of serum free culture medium and added to the upper chamber. 10% fetal bovine serum in the culture medium is used as a chemo-attractant in the lower chamber. After the cells are incubated for overnight, the number of cell passed through the Matrigel is counted.
Cells invaded through Matrigel matrix were visualized with Giemasa staining.

PC-3 cells [4] = experiment: Anchorage independent growth in soft agar
platelets = experiment: Platelet adhesion, secretion and aggregation elicited by agonists; format: cell-based, mouse and human; details: induced by ADP, PLC, U46619, collagen, thrombin, or phorbol ester
Excerpt: In the studies disclosed hereinbelow, a dual approach of genetic targeting of Rac GTPases in mice and specific pharmacological inhibition of Rac GTPases in both mouse and human platelets was used to establish the central role of Rac GTPases in platelet function.
Treatment of mice with Compound NCI23766, Formula IV. […] This process was described above in the Experimental section of this document.

PC-3 cells [5] = experiment: PC-3 cell proliferation (CellTiter 96 AQueous assay); details: 5% calf serum, indicated concentrations
Procedure: Cell growth assay. […] The growth rate of the prostate PC-3 cells is measured by the CellTiter 96 AQueous assay (Promega). 1,500 cells/well in 200 μl of 5% FBS medium are plated in 96-well plates and are grown under normal conditions. Cultures are assayed in 0, 1, 2, 3, 4, or 5 days by the addition of 20 μl of the combined MTS/PMS solution followed by incubation for one hour at 37° C. Absorbency is measured at a wavelength of 490 nm on an automated microplate reader.
The cells were split in triplicate in 96-wells at 1.5×10^3 cells per well. Cell numbers were assayed by using CellTiter 96 AQueous cell proliferation assay kit in different days.

T1 sequence (P61586 whole entry): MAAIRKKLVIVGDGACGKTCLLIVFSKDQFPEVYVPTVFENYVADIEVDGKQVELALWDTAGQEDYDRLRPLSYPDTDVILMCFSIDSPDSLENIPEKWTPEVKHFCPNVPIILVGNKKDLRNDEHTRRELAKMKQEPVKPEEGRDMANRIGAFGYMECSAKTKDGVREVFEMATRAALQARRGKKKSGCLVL
Chain of PDZ-RhoGEF-stimulated mantGDP/GTP exchange of RhoA (P61586 whole entry): as above
T2 sequence (Q9QUI0 whole entry): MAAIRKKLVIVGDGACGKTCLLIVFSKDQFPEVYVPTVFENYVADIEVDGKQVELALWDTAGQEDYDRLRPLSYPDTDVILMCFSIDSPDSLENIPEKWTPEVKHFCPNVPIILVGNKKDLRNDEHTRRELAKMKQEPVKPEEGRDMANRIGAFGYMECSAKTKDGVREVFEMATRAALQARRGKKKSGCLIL

## CCN(CC)CCCC(C)Nc1nc(C)cc(Nc2ccc3nc(C)cc(N)c3c2)n1 (racemic) [Compound NCI23766, N6-(2-((4-(diethylamino)-1-methylbutyl)amino)-6-methyl-4-pyrimidinyl)-2-methyl-4,6-quinolinediamine]
NIH 3T3 cells; 5% serum
  growth of wild type NIH 3T3 cells: slow the growth
  growth rate of Rac1L61 expressing cells: no effect
NIH 3T3 cells; NIH 3T3, 5% serum
  cell growth induced by the Rac specific GEF Trio: capable of inhibiting
Swiss3T3 cells; 5 min
  PDGF induction of lamellipodia at the cell edges: only marginally effective
Swiss3T3 cells; 10 min
  PDGF induction of lamellipodia at the cell edges: completely ineffective
[1]
  interference with RhoA binding to PDZ-RhoGEF: does not interfere
[2]
  effect on PDZ-RhoGEF-stimulated mantGDP/GTP exchange of RhoA: little impact
Endogenous RhoA
  level of RhoA-GTP in cells: slightly increased level
PC-3 cells [3]
  PC-3 cell invasion: significantly inhibits
PC-3 cells [4]
  size of colonies of treated cells versus untreated: much smaller
PC-3 cells [4]; 25 μM compound
  colony-forming activities remaining: Approximately 10%
PC-3 cells [4]; 50 μM compound
  colony-forming activities remaining: ~1%
platelets
  platelet adhesion: worked remarkably in inhibiting
  platelet aggregation: worked remarkably in inhibiting
  platelet secretion: worked remarkably in inhibiting
PC-3 cells [5]
  proliferation rates of PC-3 cells: inhibited by Compound NCI23766 in a dose dependent manner
